Test results: the NIST ThermoML archive (doi:10.1021/je800636k)

Tests used:
[1] = 101 kPa, Liquid; for electrical conductivity: Qcond 2400 VWR international / cell constant, 1.05; for viscosity: Concentric cylinders viscometry; for mass density: Vibrating tube method
[2] = xn = mol fraction of the nth substance listed; conditions: 101 kPa, Liquid, x2 = 0; for electrical conductivity: Qcond 2400 VWR international / cell constant, 1.05; for viscosity: Concentric cylinders viscometry; for mass density: Vibrating tube method

CCCCn1cc[n+](C)c1C.F[B-](F)(F)F [1-butyl-2,3-dimethylimidazolium tetrafluoroborate]
[1]
Conditions	electrical conductivity [S/m]	mass density [kg/m3]	viscosity [mPa·s]
303.15 K	0.0758	–	–
308.15 K	0.106	–	–
313.15 K	0.145	1182.05	364.17
318.15 K	0.194	–	–
323.15 K	0.254	1175.57	204.79
328.15 K	0.327	–	–
333.15 K	0.415	1169.08	124.34
338.15 K	0.518	–	–
343.15 K	0.639	1162.6	80.35
348.15 K	0.779	–	–
353.15 K	0.939	1156.12	54.65
358.15 K	1.12	–	–
363.15 K	1.32	1149.64	38.8
368.15 K	1.55	–	–
373.15 K	–	1143.15	28.56

CCCCn1cc[n+](C)c1C.[N-]=[N+]=[N-] [1-butyl-2,3-dimethylimidazolium azide]
[1]
Conditions	electrical conductivity [S/m]	mass density [kg/m3]	viscosity [mPa·s]
303.15 K	0.0488	–	–
308.15 K	0.0756	–	–
313.15 K	0.112	1070.46	338.19
318.15 K	0.159	–	–
323.15 K	0.219	1065.14	176.04
328.15 K	0.294	–	–
333.15 K	0.383	1059.83	101.63
338.15 K	0.49	–	–
343.15 K	0.614	1054.52	63.6
348.15 K	0.756	–	–
353.15 K	0.918	1049.21	42.44
358.15 K	1.1	–	–
363.15 K	1.3	1043.9	29.82
368.15 K	1.52	–	–
373.15 K	–	1038.59	21.87

CCCCn1cc[n+](C)c1C.F[B-](F)(F)F [1-butyl-2,3-dimethylimidazolium tetrafluoroborate] + CCCCn1cc[n+](C)c1C.[N-]=[N+]=[N-]
[2]
Conditions	electrical conductivity [S/m]	mass density [kg/m3]	viscosity [mPa·s]
303.15 K	0.0758	–	–
308.15 K	0.106	–	–
313.15 K	0.145	1182.05	364.17
318.15 K	0.194	–	–
323.15 K	0.254	1175.57	204.79
328.15 K	0.327	–	–
333.15 K	0.415	1169.08	124.34
338.15 K	0.518	–	–
343.15 K	0.639	1162.6	80.35
348.15 K	0.779	–	–
353.15 K	0.939	1156.12	54.65
358.15 K	1.12	–	–
363.15 K	1.32	1149.64	38.8
368.15 K	1.55	–	–
373.15 K	–	1143.15	28.56
